Molecules are shown by their SMILES. Values after ≈ are worked out from the molar mass of the structure shown.

The subject of the first data set is Staphylococcus aureus. The experiment in a line: In vitro antibacterial activity against Staphylococcus aureus V573 (resistance due to modified target enzyme). The format is functional.
Turning to `C=C(C)C(=O)OCC1=C(C(=O)O)N2C(=O)[C@@H](NC(=O)/C(=N\O)c3cnc(N)s3)[C@H]2SC1`, the MIC is 2 µg/mL (≈ 4.28 µM).

For `CO/N=C(\C(=O)N[C@@H]1C(=O)N2C(C(=O)O)=C(COC(C)=O)CS[C@H]12)c1csc(N)n1` [CEFOTAXIME], the MIC stood at 32 µg/mL (≈ 70.3 µM).

For the next data set, the system named is Proteus mirabilis. Kind of data set: In vitro antibacterial activity against Proteus mirabilis C977. Format: functional.
`C=C(C)C(=O)OCC1=C(C(=O)O)N2C(=O)[C@@H](NC(=O)/C(=N\O)c3cnc(N)s3)[C@H]2SC1` returned an MIC of 0.06 µg/mL (≈ 0.128 µM).

Compound `CO/N=C(\C(=O)N[C@@H]1C(=O)N2C(C(=O)O)=C(COC(C)=O)CS[C@H]12)c1csc(N)n1` [CEFOTAXIME] registered an MIC of less than 0.03 µg/mL.

The test system of the next data set is Escherichia coli. Kind of data set: In vitro antibacterial activity against Escherichia coli 10418. Format: functional.
Compound `C=C(C)C(=O)OCC1=C(C(=O)O)N2C(=O)[C@@H](NC(=O)/C(=N\O)c3cnc(N)s3)[C@H]2SC1` yielded an MIC of less than 0.03 µg/mL.

For the compound `CO/N=C(\C(=O)N[C@@H]1C(=O)N2C(C(=O)O)=C(COC(C)=O)CS[C@H]12)c1csc(N)n1` [CEFOTAXIME], the MIC is less than 0.03 µg/mL.

In the next data set the test system is Enterococcus faecalis. Kind of data set: In vitro antibacterial activity against S. faecalis I. The format is functional.
As to `CO/N=C(\C(=O)N[C@@H]1C(=O)N2C(C(=O)O)=C(COC(C)=O)CS[C@H]12)c1csc(N)n1` [CEFOTAXIME], the MIC is greater than 64 µg/mL.

The test system of a further data set is Staphylococcus aureus. Kind of data set: In vitro antibacterial activity against Staphylococcus aureus Oxford. Format: functional.
Compound `C=C(C)C(=O)OCC1=C(C(=O)O)N2C(=O)[C@@H](NC(=O)/C(=N\O)c3cnc(N)s3)[C@H]2SC1` registered an MIC of 0.06 µg/mL (≈ 0.128 µM).

For `CO/N=C(\C(=O)N[C@@H]1C(=O)N2C(C(=O)O)=C(COC(C)=O)CS[C@H]12)c1csc(N)n1` [CEFOTAXIME], the MIC amounted to 2 µg/mL (≈ 4.39 µM).

In another data set the test system is Streptococcus pyogenes. Kind of data set: In vitro antibacterial activity against Streptococcus pyogenes CN10. The format is functional.
Regarding `C=C(C)C(=O)OCC1=C(C(=O)O)N2C(=O)[C@@H](NC(=O)/C(=N\O)c3cnc(N)s3)[C@H]2SC1`, the MIC was less than 0.03 µg/mL.

The compound `CO/N=C(\C(=O)N[C@@H]1C(=O)N2C(C(=O)O)=C(COC(C)=O)CS[C@H]12)c1csc(N)n1` [CEFOTAXIME] displayed an MIC of less than 0.03 µg/mL.

The subject of a further data set is Escherichia coli. Kind of data set: In vitro antibacterial activity against Escherichia coli 1077 (resistance due to beta-lactamase). Format: functional.
In turn, `C=C(C)C(=O)OCC1=C(C(=O)O)N2C(=O)[C@@H](NC(=O)/C(=N\O)c3cnc(N)s3)[C@H]2SC1` had an MIC of 0.06 µg/mL (≈ 0.128 µM).

The next data set concerns Escherichia coli. Kind of data set: In vitro antibacterial activity against Escherichia coli JT425 (resistance due to beta-lactamase). The format is functional.
Turning to `C=C(C)C(=O)OCC1=C(C(=O)O)N2C(=O)[C@@H](NC(=O)/C(=N\O)c3cnc(N)s3)[C@H]2SC1`, the MIC was determined as 0.12 µg/mL (≈ 0.257 µM).

Take `CO/N=C(\C(=O)N[C@@H]1C(=O)N2C(C(=O)O)=C(COC(C)=O)CS[C@H]12)c1csc(N)n1` [CEFOTAXIME]: the MIC worked out at 0.5 µg/mL (≈ 1.1 µM).

The next data set has as its system Moraxella catarrhalis. The experiment in a line: In vitro antibacterial activity against Branhamella catarrhalis Ravasio (resistance due to beta-lactamase). The format is functional.
As for `C=C(C)C(=O)OCC1=C(C(=O)O)N2C(=O)[C@@H](NC(=O)/C(=N\O)c3cnc(N)s3)[C@H]2SC1`, the MIC is 0.5 µg/mL (≈ 1.07 µM).

On to `CO/N=C(\C(=O)N[C@@H]1C(=O)N2C(C(=O)O)=C(COC(C)=O)CS[C@H]12)c1csc(N)n1` [CEFOTAXIME], for which the MIC is 0.25 µg/mL (≈ 0.549 µM).

The subject of another data set is Klebsiella pneumoniae. The experiment in a line: In vitro antibacterial activity against Klebsiella pneumoniae T767. Format: functional.
For the compound `C=C(C)C(=O)OCC1=C(C(=O)O)N2C(=O)[C@@H](NC(=O)/C(=N\O)c3cnc(N)s3)[C@H]2SC1`, the MIC amounted to 0.12 µg/mL (≈ 0.257 µM).

With `CO/N=C(\C(=O)N[C@@H]1C(=O)N2C(C(=O)O)=C(COC(C)=O)CS[C@H]12)c1csc(N)n1` [CEFOTAXIME], the MIC came to 0.06 µg/mL (≈ 0.132 µM).

In the next data set the test system is Streptococcus pneumoniae. Kind of data set: In vitro antibacterial activity against Streptococcus pneumoniae 1716. The format is functional.
`C=C(C)C(=O)OCC1=C(C(=O)O)N2C(=O)[C@@H](NC(=O)/C(=N\O)c3cnc(N)s3)[C@H]2SC1` showed an MIC of less than 0.03 µg/mL.

In turn, `CO/N=C(\C(=O)N[C@@H]1C(=O)N2C(C(=O)O)=C(COC(C)=O)CS[C@H]12)c1csc(N)n1` [CEFOTAXIME] gave an MIC of less than 0.03 µg/mL.

The test system of the next data set is Haemophilus influenzae. The experiment in a line: In vitro antibacterial activity against Haemophilus influenzae Q1. Format: functional.
Take `C=C(C)C(=O)OCC1=C(C(=O)O)N2C(=O)[C@@H](NC(=O)/C(=N\O)c3cnc(N)s3)[C@H]2SC1`: the MIC is less than 0.03 µg/mL.

In the case of `CO/N=C(\C(=O)N[C@@H]1C(=O)N2C(C(=O)O)=C(COC(C)=O)CS[C@H]12)c1csc(N)n1` [CEFOTAXIME], the MIC is less than 0.03 µg/mL.

Tested on in a further data set: not listed separately
The experiment in a line: Half-life in a rat liver homogenate preparation. Format: ADME.
For orientation: half-life means the time in which the quantity being followed falls by half. A higher half-life goes with slow loss. Regarding `CO/N=C(\C(=O)N[C@@H]1C(=O)N2C(C(=O)O)=C(COC(C)=O)CS[C@H]12)c1csc(N)n1` [CEFOTAXIME], the half-life was no more than 15 min.

Another data set has as its system Morganella morganii. Kind of data set: In vitro antibacterial activity against Morganella morganii T361. The format is functional.
In the case of `C=C(C)C(=O)OCC1=C(C(=O)O)N2C(=O)[C@@H](NC(=O)/C(=N\O)c3cnc(N)s3)[C@H]2SC1`, the MIC came out at 0.06 µg/mL (≈ 0.128 µM).

Compound `CO/N=C(\C(=O)N[C@@H]1C(=O)N2C(C(=O)O)=C(COC(C)=O)CS[C@H]12)c1csc(N)n1` [CEFOTAXIME] displayed an MIC of 2 µg/mL (≈ 4.39 µM).

The subject of the next data set is Staphylococcus aureus. The experiment in a line: In vitro antibacterial activity against Staphylococcus aureus MB9. Format: functional.
In the case of `CO/N=C(\C(=O)N[C@@H]1C(=O)N2C(C(=O)O)=C(COC(C)=O)CS[C@H]12)c1csc(N)n1` [CEFOTAXIME], the MIC worked out at 4 µg/mL (≈ 8.78 µM).

The subject of the next data set is Streptococcus pneumoniae. The experiment in a line: In vitro antibacterial activity against Streptococcus pneumoniae PU7 (resistance due to modified target enzyme. The format is functional.
As for `C=C(C)C(=O)OCC1=C(C(=O)O)N2C(=O)[C@@H](NC(=O)/C(=N\O)c3cnc(N)s3)[C@H]2SC1`, the MIC stood at 1 µg/mL (≈ 2.14 µM).

`CO/N=C(\C(=O)N[C@@H]1C(=O)N2C(C(=O)O)=C(COC(C)=O)CS[C@H]12)c1csc(N)n1` [CEFOTAXIME] came in with an MIC of 2 µg/mL (≈ 4.39 µM).

The test system of another data set is Enterococcus faecalis. Kind of data set: In vitro antibacterial activity against Streptococcus faecalis I. The format is functional.
In turn, `C=C(C)C(=O)OCC1=C(C(=O)O)N2C(=O)[C@@H](NC(=O)/C(=N\O)c3cnc(N)s3)[C@H]2SC1` registered an MIC of 32 µg/mL (≈ 68.5 µM).

For the next data set, the system named is Pseudomonas aeruginosa. Kind of data set: In vitro antibacterial activity against Pseudomonas aeruginosa 10662. The format is functional.
For `C=C(C)C(=O)OCC1=C(C(=O)O)N2C(=O)[C@@H](NC(=O)/C(=N\O)c3cnc(N)s3)[C@H]2SC1`, the MIC amounted to 64 µg/mL (≈ 137 µM).

As to `CO/N=C(\C(=O)N[C@@H]1C(=O)N2C(C(=O)O)=C(COC(C)=O)CS[C@H]12)c1csc(N)n1` [CEFOTAXIME], the MIC is 16 µg/mL (≈ 35.1 µM).

The next data set has as its system Escherichia coli. The experiment in a line: In vitro antibacterial activity against Escherichia coli ESS. The format is functional.
Regarding `C=C(C)C(=O)OCC1=C(C(=O)O)N2C(=O)[C@@H](NC(=O)/C(=N\O)c3cnc(N)s3)[C@H]2SC1`, the MIC is less than 0.03 µg/mL.

Turning to `CO/N=C(\C(=O)N[C@@H]1C(=O)N2C(C(=O)O)=C(COC(C)=O)CS[C@H]12)c1csc(N)n1` [CEFOTAXIME], the MIC is less than 0.03 µg/mL.

A further data set relates to Staphylococcus aureus. Kind of data set: In vitro antibacterial activity against Staphylococcus aureus Russell (resistance due to beta-lactamase). Format: functional.
`C=C(C)C(=O)OCC1=C(C(=O)O)N2C(=O)[C@@H](NC(=O)/C(=N\O)c3cnc(N)s3)[C@H]2SC1` showed an MIC of 0.25 µg/mL (≈ 0.535 µM).

`CO/N=C(\C(=O)N[C@@H]1C(=O)N2C(C(=O)O)=C(COC(C)=O)CS[C@H]12)c1csc(N)n1` [CEFOTAXIME]: the MIC came out at 2 µg/mL (≈ 4.39 µM).

A further data set concerns Staphylococcus aureus. The experiment in a line: In vitro antibacterial activity against S. aureus MB9. The format is functional.
`C=C(C)C(=O)OCC1=C(C(=O)O)N2C(=O)[C@@H](NC(=O)/C(=N\O)c3cnc(N)s3)[C@H]2SC1`: the MIC was determined as 0.25 µg/mL (≈ 0.535 µM).

A further data set deals with Streptococcus agalactiae. Kind of data set: In vitro antibacterial activity against Streptococcus agalactiae 2798. Format: functional.
The compound `C=C(C)C(=O)OCC1=C(C(=O)O)N2C(=O)[C@@H](NC(=O)/C(=N\O)c3cnc(N)s3)[C@H]2SC1` yielded an MIC of less than 0.03 µg/mL.

`CO/N=C(\C(=O)N[C@@H]1C(=O)N2C(C(=O)O)=C(COC(C)=O)CS[C@H]12)c1csc(N)n1` [CEFOTAXIME] yielded an MIC of 0.12 µg/mL (≈ 0.263 µM).

The next data set relates to Staphylococcus epidermidis. Kind of data set: In vitro antibacterial activity against Staphylococcus epidermidis PHLN20. The format is functional.
In turn, `C=C(C)C(=O)OCC1=C(C(=O)O)N2C(=O)[C@@H](NC(=O)/C(=N\O)c3cnc(N)s3)[C@H]2SC1` displayed an MIC of 0.06 µg/mL (≈ 0.128 µM).

Take `CO/N=C(\C(=O)N[C@@H]1C(=O)N2C(C(=O)O)=C(COC(C)=O)CS[C@H]12)c1csc(N)n1` [CEFOTAXIME]: the MIC was 1 µg/mL (≈ 2.2 µM).
